According to PubChem BioAssay (NCI):
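Briefly, cells in 96-well plates were exposed to five compound concentrations for 48 h, and endpoints were estimated by linear interpolation. TGI marks complete inhibition of growth.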

Experiments:
Test in all cases: NCI tumour cell line growth inhibition, 48 h
[1] = test system: HOP-92 NSCLC
[2] = test system: SF-539 CNS
[3] = test system: U251 CNS
[4] = test system: SK-MEL-28 melanoma
[5] = test system: SK-OV-3 ovarian
[6] = test system: HT29 colon
[7] = test system: OVCAR-4 ovarian
[8] = test system: ACHN renal
[9] = test system: K-562 leukemia
[10] = test system: KM20L2 colon
[11] = test system: OVCAR-3 ovarian
[12] = test system: SNB-19 CNS
[13] = test system: OVCAR-5 ovarian
[14] = test system: LOX IMVI melanoma
[15] = test system: TK-10 renal
[16] = test system: SK-MEL-5 melanoma
[17] = test system: A498 renal
[18] = test system: M19-MEL melanoma
[19] = test system: SNB-78 CNS
[20] = test system: HOP-62 NSCLC
[21] = test system: MOLT-4 leukemia
[22] = test system: M14 melanoma
[23] = test system: COLO 205 colon
[24] = test system: HOP-18 NSCLC
[25] = test system: DMS 114 small cell lung
[26] = test system: SR leukemia
[27] = test system: SN12C renal
[28] = test system: NCI-H522 lung
[29] = test system: 786-0 renal
[30] = test system: CCRF-CEM leukemia
[31] = test system: DLD-1 colon
[32] = test system: NCI-H23 lung
[33] = test system: HCT-116 colon
[34] = test system: SF-268 CNS
[35] = test system: SF-295 CNS
[36] = test system: UACC-257 melanoma
[37] = test system: MALME-3M melanoma
[38] = test system: UO-31 renal
[39] = test system: DMS 273 small cell lung
[40] = test system: IGROV1 ovarian
[41] = test system: OVCAR-8 ovarian
[42] = test system: HL-60(TB) leukemia
[43] = test system: RXF 393 renal
[44] = test system: KM12 colon
[45] = test system: HCT-15 colon
[46] = test system: SNB-75 CNS
[47] = test system: LXFL 529 NSCLC
[48] = test system: UACC-62 melanoma
[49] = test system: HCC-2998 colon
[50] = test system: CAKI-1 renal
[51] = test system: A549 NSCLC
[52] = test system: EKVX NSCLC
[53] = test system: SW-620 colon
[54] = test system: SK-MEL-2 melanoma
[55] = test system: NCI-H460 lung
[56] = test system: RPMI-8226 leukemia

O=[N+]([O-])c1cccc(S(=O)(=O)N/N=C/c2cc(I)cc([N+](=O)[O-])c2O)c1
TGI [1]: 35.1 µM | TGI [2]: 48.5 µM | TGI [3]: 57.8 µM | TGI [4]: 87.9 µM | TGI [5]: 73.2 µM | TGI [6]: 73.6 µM | TGI [7]: > 100 µM | TGI [8]: 95.8 µM | TGI [9]: 58.4 µM | TGI [10]: > 100 µM | TGI [11]: 43.9 µM | TGI [12]: 65.5 µM | TGI [13]: > 100 µM | TGI [14]: 62.3 µM | TGI [15]: 95.2 µM | TGI [16]: 44 µM | TGI [17]: > 100 µM | TGI [18]: > 100 µM | TGI [19]: 66.4 µM | TGI [20]: 57.2 µM | TGI [21]: 81.5 µM | TGI [22]: 77 µM | TGI [23]: 31.7 µM | TGI [24]: 78.6 µM | TGI [25]: 53.8 µM | TGI [26]: 60.9 µM | TGI [27]: 64.6 µM | TGI [28]: 35.9 µM | TGI [29]: > 100 µM | TGI [30]: 47.9 µM | TGI [31]: > 100 µM | TGI [32]: 42.4 µM | TGI [33]: 71.1 µM | TGI [34]: 79.3 µM | TGI [35]: 98.7 µM | TGI [36]: 57 µM | TGI [37]: 64.2 µM | TGI [38]: 67.5 µM | TGI [39]: 52.9 µM | TGI [40]: > 100 µM | TGI [41]: 63.2 µM | TGI [42]: 47 µM | TGI [43]: 56.3 µM | TGI [44]: > 100 µM | TGI [45]: 65.5 µM | TGI [46]: 67.2 µM | TGI [47]: 48.3 µM | TGI [48]: 45.2 µM | TGI [49]: > 100 µM | TGI [50]: 50.9 µM | TGI [51]: > 100 µM | TGI [52]: 80 µM | TGI [53]: 58.5 µM | TGI [54]: 39 µM | TGI [55]: > 100 µM | TGI [56]: 86.2 µM
